From US20180161449A1 (OCULIS EHF, priority 2015, published 2018)

Tests used:
[1] = type: physicochemical
Procedure: An excess amount of drug was added to aqueous solutions containing up to 20% (w/v) cyclodextrin. The solutions were sonicated at 40-50° C. for 45-60 minutes in sealed glass vials, and then allowed to cool to room temperature (22-23° C.). Small amount of solid drug was then added to each vial, the vial resealed and allowed to equilibrate under constant agitation and protected from light for 7 days at room temperature. When the solutions had reached equilibrium, they were filtered through a 0.45 μm membrane filter and analyzed by high pressure liquid chromatography. […] The complexation efficiency (CE) was determined from the slope of phase-solubility diagrams (plots of total solubility of the drug versus total CD concentration in mol/l) where S0 is the intrinsic solubility of the drug:
The mobile phase consisted of acetonitrile, methanol and water (60:20:20), the flow rate was 1 ml/min, the column oven temperature was 80° C. and the detection wavelength was 205 nm.

[2] = pure water at room temperature; cited from earlier work

| Compound | CE (complexation efficiency) [1] | Solubility of the cyclodextrin in pure water [2] | Solubility in the presence of 5% (w/v) cyclodextrin [1] [µg/mL] | Solubility in the presence of 15% (w/v) cyclodextrin [1] [µg/mL] |
| --- | --- | --- | --- | --- |
| OC[C@H]1O[C@@H]2O[C@H]3[C@H](O)[C@@H](O)[C@@H](O[C@H]4[C@H](O)[C@@H](O)[C@@H](O[C@H]5[C@H](O)[C@@H](O)[C@@H](O[C@H]6[C@H](O)[C@@H](O)[C@@H](O[C@H]7[C@H](O)[C@@H](O)[C@@H](O[C@H]8[C@H](O)[C@@H](O)[C@@H](O[C@H]1[C@H](O)[C@H]2O)O[C@@H]8CO)O[C@@H]7CO)O[C@@H]6CO)O[C@@H]5CO)O[C@@H]4CO)O[C@@H]3CO [β-Cyclodextrin] | 0.030 | 2 % (w/v) | – | – |
| 2-Hydroxypropyl-α-cyclodextrin | 0.031 | – | 84 | 460 |
| Randomly methylated β-cyclodextrin | 0.053 | – | 130 | – |
| 2-Hydroxypropyl-γ-cyclodextrin | 0.0011 | – | – | – |
| OC[C@H]1O[C@@H]2O[C@H]3[C@H](O)[C@@H](O)[C@@H](O[C@H]4[C@H](O)[C@@H](O)[C@@H](O[C@H]5[C@H](O)[C@@H](O)[C@@H](O[C@H]6[C@H](O)[C@@H](O)[C@@H](O[C@H]7[C@H](O)[C@@H](O)[C@@H](O[C@H]1[C@H](O)[C@H]2O)O[C@@H]7CO)O[C@@H]6CO)O[C@@H]5CO)O[C@@H]4CO)O[C@@H]3CO [α-Cyclodextrin] | 0.54 | – | – | 4200 |
| OC[C@H]1O[C@@H]2O[C@H]3[C@H](O)[C@@H](O)[C@@H](O[C@H]4[C@H](O)[C@@H](O)[C@@H](O[C@H]5[C@H](O)[C@@H](O)[C@@H](O[C@H]6[C@H](O)[C@@H](O)[C@@H](O[C@H]7[C@H](O)[C@@H](O)[C@@H](O[C@H]8[C@H](O)[C@@H](O)[C@@H](O[C@H]9[C@H](O)[C@@H](O)[C@@H](O[C@H]1[C@H](O)[C@H]2O)O[C@@H]9CO)O[C@@H]8CO)O[C@@H]7CO)O[C@@H]6CO)O[C@@H]5CO)O[C@@H]4CO)O[C@@H]3CO [γ-Cyclodextrin] | 0.0049 | – | – | – |
